In brackets after ≈: the same amount, converted by molar mass. Starred links: 1 amine or outer side, 2 acyl side, 3 side chain; linkers in the order of their positions; H or OH if unused. Non-standard residues stand in square brackets, D forms with d. Residues, ends and D or L forms follow the SMILES beside them. *: point of attachment. Ethylenediamine = C(CN[*:2])N[*:1]; Lauroyl = CCCCCCCCCCCC(=O)*; Decanoyl = CCCCCCCCCC(=O)*; Octanoyl = CCCCCCCC(=O)*
Experiments:
Assay type in all cases: cell-based
[1] = test system: Staphylococcus aureus ATCC 29213; assay: MIC, NCCLS M7-A6 broth microdilution, cation-adjusted Mueller Hinton broth (Table 9, no superscript); details: ATCC 29213
Outline: (§1)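 Broth microdilution in cation-adjusted Mueller Hinton broth with log-phase inoculum at 5×10^5 to 1×10^6 CFU/mL, incubated overnight at 37° C. MIC was the lowest peptide concentration showing no visible turbidity versus the no-peptide control.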

[2] = test system: Escherichia coli ATCC 25922; assay: MIC, NCCLS M7-A6 broth microdilution (Table 9, no superscript); details: ATCC 25922
Outline: as §1

[3] = test system: Pseudomonas aeruginosa ATCC 27853; assay: as above; details: ATCC 27853
Outline: as §1

Salmonella dublin (Lane) = assay: as above
Outline: as §1

[4] = test system: Staphylococcus epidermidis ATCC 12228; assay: as above; details: ATCC 12228
Outline: as §1

[5] = test system: Propionibacterium acnes ATCC 6919; assay: MIC, agar dilution method NCCLS M11-A6, Brucella agar, anaerobic (Table 9, superscript c); details: ATCC 6919
Outline: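 Agar dilution per NCCLS M11-A6 on Brucella agar; final inoculum 1.5×10^8 CFU/milliliter applied to plates, incubated 48-96 hours at 37° C. under anaerobic (GasPak) conditions. MIC = lowest peptide concentration with no colony growth.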

[6] = test system: Candida albicans ATCC 18804; assay: MIC in yeasts, NCCLS M27-A2 broth microdilution, RPMI 1640 (Table 9, letter e); details: ATCC 18804
Outline: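 Broth microdilution per NCCLS M27-A2 in RPMI 1640 with glutamine and phenol red, final inoculum 0.5×10^3–2.5×10^3 CFU/milliliter. Incubated 24 to 48 hours at 37° C; MIC is the lowest peptide concentration with no visible growth.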

Row | Structure (SMILES) | MIC S. aureus [1] | MIC E. coli [2] | MIC P. aeruginosa [3] | MIC S. dublin (Salmonella dublin (Lane)) | MIC S. epidermidis [4] | MIC P. acnes [5] | MIC C. albicans [6]
1 | CCCCCCCCCCCC(=O)NCCNC(=O)[C@H](CCCNC(=N)N)NC(=O)[C@H](CCSC)NC(=O)[C@H](Cc1ccccc1)NC(=O)[C@H](CC(N)=O)NC(=O)[C@H](CCCNC(=N)N)NC(=O)[C@H](C)NC(=O)[C@@H](NC(=O)[C@H](CC(=O)O)NC(=O)[C@H](CCCNC(=N)N)NC(=O)[C@H](Cc1c[nH]c2ccccc12)NC(=O)[C@H](CCCNC(=N)N)NC(=O)[C@H](CO)NC(=O)[C@@H](N)CCCNC(=N)N)C(C)C [Peptide 176, H2N-RSRWRDVARNFMR-Ethylamidolauryl] (H-RSRWRDVARNFMR-{Ethylenediamine-Lauroyl}; C-terminus assumed) | 8 µg/mL (≈ 4.05 µM) | 8 µg/mL (≈ 4.05 µM) | 32 µg/mL (≈ 16.2 µM) | 16 µg/mL (≈ 8.1 µM) | 1 µg/mL (≈ 0.506 µM) | 64c ug/mL | 4e ug/mL
2 | CCCCCCCCCC(=O)NCCCC[C@H](NC(=O)[C@H](CCCNC(=N)N)NC(=O)[C@H](CC(C)C)NC(=O)[C@H](Cc1ccccc1)NC(=O)[C@H](CC(N)=O)NC(=O)[C@H](CCCNC(=N)N)NC(=O)[C@H](C)NC(=O)[C@@H](NC(=O)[C@H](CC(=O)O)NC(=O)[C@H](CCCNC(=N)N)NC(=O)[C@H](Cc1c[nH]c2ccccc12)NC(=O)[C@H](CCCNC(=N)N)NC(=O)[C@H](CO)NC(=O)[C@@H](N)CCCNC(=N)N)C(C)C)C(N)=O [Peptide 180, H2N-RSRWRDVARNFLRK(Decanyl)-NH2] (H-RSRWRDVARNFLRK(Decanoyl)-NH2) | 8 µg/mL (≈ 3.97 µM) | 4 µg/mL (≈ 1.99 µM) | 4 µg/mL (≈ 1.99 µM) | 16 µg/mL (≈ 7.95 µM) | 1 µg/mL (≈ 0.497 µM) | 64c ug/mL | 16e ug/mL
3 | CCCCCCCCCCCC(=O)NCCCC[C@H](NC(=O)[C@H](CCCNC(=N)N)NC(=O)[C@H](CC(C)C)NC(=O)[C@H](Cc1ccccc1)NC(=O)[C@H](CC(N)=O)NC(=O)[C@H](CCCNC(=N)N)NC(=O)[C@H](C)NC(=O)[C@@H](NC(=O)[C@H](CC(=O)O)NC(=O)[C@H](CCCNC(=N)N)NC(=O)[C@H](Cc1c[nH]c2ccccc12)NC(=O)[C@H](CCCNC(=N)N)NC(=O)[C@H](CO)NC(=O)[C@@H](N)CCCNC(=N)N)C(C)C)C(N)=O [Peptide 181, H2N-RSRWRDVARNFLRK(Lauryl)-NH2] (H-RSRWRDVARNFLRK(Lauroyl)-NH2) | 4 µg/mL (≈ 1.96 µM) | 4 µg/mL (≈ 1.96 µM) | 4 µg/mL (≈ 1.96 µM) | 16 µg/mL (≈ 7.84 µM) | 1 µg/mL (≈ 0.49 µM) | 64c ug/mL | 8e ug/mL
4 | CCCCCCCC(=O)NCCCC[C@@H](NC(=O)[C@@H](CCCNC(=N)N)NC(=O)[C@@H](CC(C)C)NC(=O)[C@@H](Cc1ccccc1)NC(=O)[C@@H](CC(N)=O)NC(=O)[C@@H](CCCNC(=N)N)NC(=O)[C@@H](C)NC(=O)[C@H](NC(=O)[C@@H](CC(=O)O)NC(=O)[C@@H](CCCNC(=N)N)NC(=O)[C@@H](Cc1c[nH]c2ccccc12)NC(=O)[C@@H](CCCNC(=N)N)NC(=O)[C@@H](CO)NC(=O)[C@H](N)CCCNC(=N)N)C(C)C)C(N)=O [Peptide 193, H2N-rsrwrdvarnflrk(Octanyl)-NH2] (H-[dR][dS][dR][dW][dR][dD][dV][dA][dR][dN][dF][dL][dR][dK](Octanoyl)-NH2) | 16 µg/mL (≈ 8.06 µM) | 8 µg/mL (≈ 4.03 µM) | 16 µg/mL (≈ 8.06 µM) | 16 µg/mL (≈ 8.06 µM) | 2 µg/mL (≈ 1.01 µM) | 8c ug/mL | 32e ug/mL
5 | CCCCCCCCCC(=O)NCCCC[C@@H](NC(=O)[C@@H](CCCNC(=N)N)NC(=O)[C@@H](CC(C)C)NC(=O)[C@@H](Cc1ccccc1)NC(=O)[C@@H](CC(N)=O)NC(=O)[C@@H](CCCNC(=N)N)NC(=O)[C@@H](C)NC(=O)[C@H](NC(=O)[C@@H](CC(=O)O)NC(=O)[C@@H](CCCNC(=N)N)NC(=O)[C@@H](Cc1c[nH]c2ccccc12)NC(=O)[C@@H](CCCNC(=N)N)NC(=O)[C@@H](CO)NC(=O)[C@H](N)CCCNC(=N)N)C(C)C)C(N)=O [Peptide 194, H2N-rsrwrdvarnflrk(Decanyl)-NH2] (H-[dR][dS][dR][dW][dR][dD][dV][dA][dR][dN][dF][dL][dR][dK](Decanoyl)-NH2) | 2 µg/mL (≈ 0.993 µM) | 2 µg/mL (≈ 0.993 µM) | 2 µg/mL (≈ 0.993 µM) | 4 µg/mL (≈ 1.99 µM) | 1 µg/mL (≈ 0.497 µM) | 4c ug/mL | 16e ug/mL
6 | CCCCCCCCCCCC(=O)NCCCC[C@@H](NC(=O)[C@@H](CCCNC(=N)N)NC(=O)[C@@H](CC(C)C)NC(=O)[C@@H](Cc1ccccc1)NC(=O)[C@@H](CC(N)=O)NC(=O)[C@@H](CCCNC(=N)N)NC(=O)[C@@H](C)NC(=O)[C@H](NC(=O)[C@@H](CC(=O)O)NC(=O)[C@@H](CCCNC(=N)N)NC(=O)[C@@H](Cc1c[nH]c2ccccc12)NC(=O)[C@@H](CCCNC(=N)N)NC(=O)[C@@H](CO)NC(=O)[C@H](N)CCCNC(=N)N)C(C)C)C(N)=O [Peptide 195, H2N-rsrwrdvarnflrk(Lauryl)-NH2] (H-[dR][dS][dR][dW][dR][dD][dV][dA][dR][dN][dF][dL][dR][dK](Lauroyl)-NH2) | 2 µg/mL (≈ 0.98 µM) | 4 µg/mL (≈ 1.96 µM) | 4 µg/mL (≈ 1.96 µM) | 4 µg/mL (≈ 1.96 µM) | 1 µg/mL (≈ 0.49 µM) | 8c ug/mL | 8e ug/mL
7 | CCCCCCCC(=O)NCCCC[C@@H](NC(=O)[C@@H](CCCNC(=N)N)NC(=O)[C@@H](CCSC)NC(=O)[C@@H](Cc1ccccc1)NC(=O)[C@@H](CC(N)=O)NC(=O)[C@@H](CCCNC(=N)N)NC(=O)[C@@H](C)NC(=O)[C@H](NC(=O)[C@@H](CC(=O)O)NC(=O)[C@@H](CCCNC(=N)N)NC(=O)[C@@H](Cc1c[nH]c2ccccc12)NC(=O)[C@@H](CCCNC(=N)N)NC(=O)[C@@H](CO)NC(=O)[C@H](N)CCCNC(=N)N)C(C)C)C(N)=O [Peptide 198, H2N-rsrwrdvarnfmrk(Octanyl)-NH2] (H-[dR][dS][dR][dW][dR][dD][dV][dA][dR][dN][dF][dM][dR][dK](Octanoyl)-NH2) | 16 µg/mL (≈ 7.99 µM) | 16 µg/mL (≈ 7.99 µM) | 64 µg/mL (≈ 31.9 µM) | 32 µg/mL (≈ 16 µM) | 4 µg/mL (≈ 2 µM) | 16c ug/mL | 64e ug/mL

Continued, values first:

Row | MIC S. aureus [1] | MIC E. coli [2] | MIC P. aeruginosa [3] | MIC S. dublin (Salmonella dublin (Lane)) | MIC S. epidermidis [4] | MIC P. acnes [5] | MIC C. albicans [6] | Structure (SMILES)
8 | 4 µg/mL (≈ 1.97 µM) | 8 µg/mL (≈ 3.94 µM) | 16 µg/mL (≈ 7.88 µM) | 16 µg/mL (≈ 7.88 µM) | 1 µg/mL (≈ 0.492 µM) | 32c ug/mL | 32e ug/mL | CCCCCCCCCC(=O)NCCCC[C@H](NC(=O)[C@H](CCCNC(=N)N)NC(=O)[C@H](CCSC)NC(=O)[C@H](Cc1ccccc1)NC(=O)[C@H](CC(N)=O)NC(=O)[C@H](CCCNC(=N)N)NC(=O)[C@H](C)NC(=O)[C@@H](NC(=O)[C@H](CC(=O)O)NC(=O)[C@H](CCCNC(=N)N)NC(=O)[C@H](Cc1c[nH]c2ccccc12)NC(=O)[C@H](CCCNC(=N)N)NC(=O)[C@H](CO)NC(=O)[C@@H](N)CCCNC(=N)N)C(C)C)C(N)=O [Peptide 185, H2N-RSRWRDVARNFMRK(Decanyl)-NH2] (H-RSRWRDVARNFMRK(Decanoyl)-NH2)
9 | 4 µg/mL (≈ 1.94 µM) | 4 µg/mL (≈ 1.94 µM) | 4 µg/mL (≈ 1.94 µM) | 16 µg/mL (≈ 7.77 µM) | 1 µg/mL (≈ 0.486 µM) | 16c ug/mL | 16e ug/mL | CCCCCCCCCCCC(=O)NCCCC[C@H](NC(=O)[C@H](CCCNC(=N)N)NC(=O)[C@H](CCSC)NC(=O)[C@H](Cc1ccccc1)NC(=O)[C@H](CC(N)=O)NC(=O)[C@H](CCCNC(=N)N)NC(=O)[C@H](C)NC(=O)[C@@H](NC(=O)[C@H](CC(=O)O)NC(=O)[C@H](CCCNC(=N)N)NC(=O)[C@H](Cc1c[nH]c2ccccc12)NC(=O)[C@H](CCCNC(=N)N)NC(=O)[C@H](CO)NC(=O)[C@@H](N)CCCNC(=N)N)C(C)C)C(N)=O [Peptide 186, H2N-RSRWRDVARNFMRK(Lauryl)-NH2] (H-RSRWRDVARNFMRK(Lauroyl)-NH2)
10 | 2 µg/mL (≈ 0.985 µM) | 4 µg/mL (≈ 1.97 µM) | 4 µg/mL (≈ 1.97 µM) | 8 µg/mL (≈ 3.94 µM) | 1 µg/mL (≈ 0.492 µM) | 8c ug/mL | 32e ug/mL | CCCCCCCCCC(=O)NCCCC[C@@H](NC(=O)[C@@H](CCCNC(=N)N)NC(=O)[C@@H](CCSC)NC(=O)[C@@H](Cc1ccccc1)NC(=O)[C@@H](CC(N)=O)NC(=O)[C@@H](CCCNC(=N)N)NC(=O)[C@@H](C)NC(=O)[C@H](NC(=O)[C@@H](CC(=O)O)NC(=O)[C@@H](CCCNC(=N)N)NC(=O)[C@@H](Cc1c[nH]c2ccccc12)NC(=O)[C@@H](CCCNC(=N)N)NC(=O)[C@@H](CO)NC(=O)[C@H](N)CCCNC(=N)N)C(C)C)C(N)=O [Peptide 199, H2N-rsrwrdvarnfmrk(Decanyl)-NH2] (H-[dR][dS][dR][dW][dR][dD][dV][dA][dR][dN][dF][dM][dR][dK](Decanoyl)-NH2)

From patent US20050282755A1, “Compositions having antimicrobial activity and uses thereof” (priority 2004, published 2005)
